According to US9944659B2, “Boron-containing diacylhydrazine compounds” (Intrexon Corporation, priority 2014, dated 2018):
≈ marks a conversion by molar mass, not a printed value. Read-outs that look alike come from different tables or passages of the source.

Assay: Solubility (24 hrs equilibration at RT, HPLC-UV)
Format: physicochemical
Conditions: thermodynamic from solid, target concentration 5 mg/ml, 24 hrs at RT
Method: Representative Compounds of the Disclosure were tested for solubity (Table 4) as follows:
0.1 M Phosphate Buffer Ionic Strength ˜0.15M
Simulated Intestinal Fluid pH 7.5 (USP)
Weigh ˜2 mgs of compound into clean glass 1 dram vails.
Add ˜[…] of appropriate media to vial to yield a target concentration of 5 mg/ml.
Place vials on a rotating shaker and equilibrate for 24 hrs. at RT.
Remove supernatant to microcentrifuge tubes and centrifuge at 1300 rpm for 30 minutes.
Remove an aliquot of supernatant, dilute accordingly with acetonitrile.
Assay Samples by HPLC-UV Against Standards.

[1] = biorelevant, Simulated Intestinal Fluid pH 7.5 (USP), read-out: Solubility SIF
[2] = pH 7.4, aqueous buffer, 0.1 M Phosphate Buffer, read-out: Solubility pH 7.4

SMILES	solubility at 24 h [1] [µg/mL]	solubility at 24 h [2] [µg/mL]
COc1cccc(C(=O)NN(C(=O)c2ccc3c(c2)B(O)NC3)C(C)(C)C)c1C [compound 9, N-(tert-butyl)-1-hydroxy-N′-(3-methoxy-2-methylbenzoyl)-2,3-dihydro-1H-benzo[c][1,2]azaborole-6-carbohydrazide]	4510 (≈ 11400 µM)	4920 (≈ 12400 µM)
Cc1cc(C)cc(C(=O)N(NC(=O)c2ccc(CN(C)C)c(B(O)O)c2)C(C)(C)C)c1 [compound 11, (5-(2-(tert-butyl)-2-(3,5-dimethylbenzoyl)hydrazine-1-carbonyl)-2-((dimethylamino)methyl)phenyl)boronic acid]	4650 (≈ 10900 µM)	4700 (≈ 11100 µM)
Cc1cc(C)cc(C(=O)N(NC(=O)c2ccc(B(O)O)c(NS(=O)(=O)c3ccccc3)c2)C(C)(C)C)c1 [compound 7, (4-(2-(tert-butyl)-2-(3,5-dimethylbenzoyl)hydrazine-1-carbonyl)-2-(phenylsulfonamido)phenyl)boronic acid]	10.7 (≈ 20.4 µM)	4.1 (≈ 7.83 µM)
CNCc1ccc(C(=O)NN(C(=O)c2cc(C)cc(C)c2)C(C)(C)C)cc1B(O)O [compound 10, (5-(2-(tert-butyl)-2-(3,5-dimethylbenzoyl)hydrazine-1-carbonyl)-2-((methylamino)methyl)phenyl)boronic acid]	4800 (≈ 11700 µM)	4870 (≈ 11800 µM)
CC1=Nc2cc(C(=O)NN(C(=O)c3cc(C)cc(C)c3)C(C)(C)C)ccc2B(O)O1 [compound 2, N′-(tert-butyl)-N′-(3,5-dimethylbenzoyl)-1-hydroxy-3-methyl-1H-benzo[c][1,5,2]oxazaborinine-6-carbohydrazide]	4050 (≈ 9940 µM)	4310 (≈ 10600 µM)
COc1cccc(C(=O)NN(C(=O)c2ccc3c(c2)B(O)OC3)C(C)(C)C)c1C [compound 8, N-(tert-butyl)-1-hydroxy-N′-(3-methoxy-2-methylbenzoyl)-1,3-dihydrobenzo[c][1,2]oxaborole-6-carbohydrazide]	121 (≈ 305 µM)	42.3 (≈ 107 µM)
COc1cccc(C(=O)NN(C(=O)c2ccc(B(O)O)c(NS(=O)(=O)c3ccccc3)c2)C(C)(C)C)c1C [compound 16, (4-(1-(tert-butyl)-2-(3-methoxy-2-methylbenzoyl)hydrazine-1-carbonyl)-2-(phenylsulfonamido)phenyl)boronic acid]	24.1 (≈ 44.7 µM)	6.9 (≈ 12.8 µM)
COc1cccc(C(=O)NN(C(=O)c2ccc3c(c2)N=COB3O)C(C)(C)C)c1C [compound 13, N-(tert-butyl)-1-hydroxy-N′-(3-methoxy-2-methylbenzoyl)-1H-benzo[c][1,5,2]oxazaborinine-6-carbohydrazide]	334 (≈ 815 µM)	221 (≈ 540 µM)
Cc1cc(C)cc(C(=O)N(NC(=O)c2ccc(B(O)O)c(NCC#N)c2)C(C)(C)C)c1 [compound 17, (4-(2-(tert-butyl)-2-(3,5-dimethylbenzoyl)hydrazine-1-carbonyl)-2-((cyanomethyl)amino)phenyl)boronic acid]	59.3 (≈ 140 µM)	0.13 (≈ 0.308 µM)
Cc1cc(C)cc(C(=O)NNC(=O)c2ccc3c(c2)N=C(C(F)(F)F)OB3O)c1 [compound 6, N′-(3,5-dimethylbenzoyl)-1-hydroxy-3-(trifluoromethyl)-1H-benzo[c][1,5,2]oxazaborinine-6-carbohydrazide]	0.4 (≈ 0.987 µM)	1.7 (≈ 4.2 µM)
COc1cccc(C(=O)NN(C(=O)c2ccc3c(c2)N=C(C)OB3O)C(C)(C)C)c1C [compound 12, N-(tert-butyl)-1-hydroxy-N′-(3-methoxy-2-methylbenzoyl)-3-methyl-1H-benzo[c][1,5,2]oxazaborinine-6-carbohydrazide]	3800 (≈ 8970 µM)	3760 (≈ 8880 µM)
Cc1cc(C)cc(C(=O)N(NC(=O)c2ccc3c(c2)B(O)ON=C3)C(C)(C)C)c1 [compound 20, N′-(tert-butyl)-N′-(3,5-dimethylbenzoyl)-1-hydroxy-1H-benzo[d][1,2,6]oxazaborinine-7-carbohydrazide]	3330 (≈ 8470 µM)	2680 (≈ 6820 µM)
Cc1cc(C)cc(C(=O)N(NC(=O)c2ccc3c(c2)B(O)NC3)C(C)(C)C)c1 [compound 1, N′-(tert-butyl)-N′-(3,5-dimethylbenzoyl)-1-hydroxy-2,3-dihydro-1H-benzo[c][1,2]azaborole-6-carbohydrazide]	4870 (≈ 12900 µM)	> 5000
Cc1cc(C)cc(C(=O)N(NC(=O)c2ccc3c(c2)N=COB3O)C(C)(C)C)c1 [compound 3, N′-(tert-butyl)-N′-(3,5-dimethylbenzoyl)-1-hydroxy-1H-benzo[c][1,5,2]oxazaborinine-6-carbohydrazide]	90.2 (≈ 229 µM)	39.4 (≈ 100 µM)
Cc1cc(C)cc(C(=O)N(NC(=O)c2ccc3c(c2)B(O)NCC3)C(C)(C)C)c1 [compound 18, N′-(tert-butyl)-N′-(3,5-dimethylbenzoyl)-1-hydroxy-1,2,3,4-tetrahydrobenzo[c][1,2]azaborinine-7-carbohydrazide]	492 (≈ 1250 µM)	505 (≈ 1280 µM)
Cc1cc(C)cc(C(=O)N(NC(=O)c2ccc3c(c2)NC(=S)N(c2ccccc2)B3O)C(C)(C)C)c1 [compound 4, N′-(tert-butyl)-N′-(3,5-dimethylbenzoyl)-1-hydroxy-2-phenyl-3-thioxo-1,2,3,4-tetrahydrobenzo[c][1,5,2]diazaborinine-6-carbohydrazide]	2640 (≈ 5280 µM)	3560 (≈ 7120 µM)
Cc1cc(C)cc(C(=O)N(NC(=O)c2ccc(CC#N)c(B(O)O)c2)C(C)(C)C)c1 [compound 19, (5-(2-(tert-butyl)-2-(3,5-dimethylbenzoyl)hydrazine-1-carbonyl)-2-(cyanomethyl)phenyl)boronic acid]	31.4 (≈ 77.1 µM)	16.8 (≈ 41.2 µM)
COc1cccc(C(=O)NN(C(=O)c2ccc3c(c2)NC(=O)N(c2ccccc2)B3O)C(C)(C)C)c1C [compound 15, N-(tert-butyl)-1-hydroxy-N′-(3-methoxy-2-methylbenzoyl)-3-oxo-2-phenyl-1,2,3,4-tetrahydrobenzo[c][1,5,2]diazaborinine-6-carbohydrazide]	417 (≈ 833 µM)	540 (≈ 1080 µM)
